# Test results published in US20240360135A1, “IMIDAZO[1,2-B]PYRIDAZINYL COMPOUNDS AND USES THEREOF” (Sumitomo Pharma Oncology, Inc., priority 2021, published 2024).
# Legend:
# [1] = molecular target: T1, PIM2 (Homo sapiens, UniProt Q9P1W9); experiment: RBC HotSpot kinase inhibition assay, PIM2; format: biochemical
# T1 construct: purchased Invitrogen PR6347B
# Procedure: (§1) Reagents. Base Reaction Buffer: 20 mM Hepes (pH 7.5), 10 mM MgCl2, 1 mM EGTA, 0.01% Brij35, 0.02 mg/ml BSA, 0.1 mM Na3VO4, 2 mM DTT, 1% DMSO. The following kinases were used in the assay at the indicated concentrations:
# (§2) The following substrates were used in combination with the indicated kinases in the assay at the indicated concentration:
# (§3) No cofactors were added to any of the reactions.
# (§4) • 1. Prepared substrate in freshly prepared Reaction Buffer. • 2. Delivered kinase into the substrate solution and gently mixed. • 3. Delivered test compound in 100% DMSO into the kinase reaction mixture by Acoustic technology (Echo550; nanoliter range), incubated for 20 minutes at room temperature. • 4. Delivered ^33P-ATP into the reaction mixture to initiate the reaction. • 5. Incubated for 2 hours at room temperature. • 6. Detected kinase activity by P81 filter-binding method.
# (§5) The results of the RBC HotSpot™ kinase assay are set forth in Table 1, wherein “A” indicates an IC50<10 nM, “B” indicates an IC50 wherein 10 nM≤IC50≤100 nM, and “C” indicates an IC50>100 nM.
# [2] = molecular target: T2, PIM3 (Homo sapiens, UniProt Q86V86); experiment: RBC HotSpot kinase inhibition assay, PIM3; format: biochemical
# T2 construct: purchased Millipore 14-738
# Procedure: as §1, §2, §3, §4, §5
# [3] = molecular target: T3, PIM1 (Homo sapiens, UniProt P11309); experiment: RBC HotSpot kinase inhibition assay, PIM1; format: biochemical
# T3 construct: purchased Invitrogen PV3503
# Procedure: as §1, §2, §3, §4, §5
# [4] = test system: A549 cells; experiment: Wound healing assay in A549 cells with TGF-β; format: cell-based; settings: Homo sapiens; wound healing, A549, 5 ng/ml TGF-β, 24 h; read-out: IC50 (μM) 24 h
# Description: Overview. Epithelial to mesenchymal transition (EMT) is used to describe epithelial cells losing their cell to cell adhesion and polarity while gaining migratory and invasive properties. The process of EMT is required for normal embryonic development and wound healing, but has also been implicated in fibrosis. In humans, TGF-β signaling is the main driver of EMT, and inhibiting this pathway may be beneficial in various diseases such as fibrosis. A wound healing assay was used to study cell migration and cell-cell interaction, and probe the EMT properties of lung epithelial cells (A549) in presence of Compound 2 or Compound 4.
# Procedure. A549 cells (ATCC, CCL-185) were seeded into the ImageLock plate (Essen Bioscience) at 2×10^4 cells/well in 100 μL of complete growth media. Cells were incubated overnight at 37° C., 5% CO2. The next day, cells were washed with 1×PBS and Compound 2, Compound 4, DMSO control (±TGF-β) or galunisertib (TGF-β inhibitor used as positive control) was added to the cells in a serum-free F12K media (0.2% DMSO final, 10 μM starting concentration, 3-fold dilution, 8-doses) in presence of 5 ng/ml TGF-β. Cells were incubated for 48 hours (until they reached confluency) at 37° C., 5% CO2. Wounds were simultaneously created using a WoundMaker™ (Essen Bioscience). Debris and non-attached cells were removed by gently washing once with F12K.
# Test compound or control compound and TGF-β were added to the cells in F12K+10% FBS as previously described. The ImageLock plate was put into IncuCyteS3 instrument installed inside a 5% CO2 incubator. The plate was allowed to equilibrate in the IncuCyteS3 instrument for 15 minutes prior to scheduling the first scan and data recording. The plate was incubated for 72 hours at 37° C., and wound closure was recorded in real time with the IncuCyte S3 imaging system. Percentage of relative wound density was quantitatively calculated by the IncuCyte software.
# [5] = test system: mouse psoriasis models; settings: cited from earlier work
# T1 sequence (Q9P1W9 whole entry): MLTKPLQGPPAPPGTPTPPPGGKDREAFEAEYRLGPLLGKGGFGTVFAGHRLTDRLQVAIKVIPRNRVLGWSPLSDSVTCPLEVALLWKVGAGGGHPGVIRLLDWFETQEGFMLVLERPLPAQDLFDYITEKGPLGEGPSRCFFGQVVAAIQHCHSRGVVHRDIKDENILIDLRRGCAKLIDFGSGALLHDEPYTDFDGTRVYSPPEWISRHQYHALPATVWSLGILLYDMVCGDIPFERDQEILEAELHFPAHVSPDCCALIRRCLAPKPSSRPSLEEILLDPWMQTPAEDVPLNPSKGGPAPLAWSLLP
# T3 sequence (P11309 whole entry): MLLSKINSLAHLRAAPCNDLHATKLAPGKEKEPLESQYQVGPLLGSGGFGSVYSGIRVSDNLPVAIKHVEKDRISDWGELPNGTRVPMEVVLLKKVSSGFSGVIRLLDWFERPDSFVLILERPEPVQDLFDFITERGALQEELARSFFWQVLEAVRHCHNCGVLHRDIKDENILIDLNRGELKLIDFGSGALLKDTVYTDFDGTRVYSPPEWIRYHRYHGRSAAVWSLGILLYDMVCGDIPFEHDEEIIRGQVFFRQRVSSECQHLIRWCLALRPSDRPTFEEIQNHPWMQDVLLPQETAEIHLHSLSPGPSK
IC50 [1],IC50 [2],IC50 [3],Compound,IC50 [4],epidermal thickening [5],vascularization [5]
> 100 nM,> 100 nM,> 100 nM,"Cc1cc(-c2cnc3ccc(NC45CCC(O)(CC4)C5)nn23)n[nH]1 [Compound 1, 4-((3-(5-methyl-1H-pyrazol-3-yl)imidazo[1,2-b]pyridazin-6-yl)amino)bicyclo[2.2.1]heptan-1-ol]",,,
> 100 nM,10 to 100 nM,10 to 100 nM,"CCc1cc(-c2cnc3ccc(NC45CCC(O)(CC4)C5)nn23)c[nH]1 [Compound 3, 4-((3-(5-ethyl-1H-pyrrol-3-yl)imidazo[1,2-b]pyridazin-6-yl)amino)bicyclo[2.2.1]heptan-1-ol]",,,
> 100 nM,10 to 100 nM,10 to 100 nM,"OC12CCC(Nc3ccc4ncc(-c5cc(C6CC6)[nH]n5)n4n3)(CC1)C2 [Compound 5, 4-((3-(5-cyclopropyl-1H-pyrazol-3-yl)imidazo[1,2-b]pyridazin-6-yl)amino)bicyclo[2.2.1]heptan-1-ol]",,,
> 100 nM,< 10 nM,< 10 nM,"CCc1cc(-c2cnc3ccc(NC45CCC(C(C)(C)O)(CC4)CC5)nn23)n[nH]1 [Compound 6, 2-(4-((3-(5-ethyl-1H-pyrazol-3-yl)imidazo[1,2-b]pyridazin-6-yl)amino)bicyclo[2.2.2]octan-1-yl)propan-2-ol]",,,
> 100 nM,10 to 100 nM,10 to 100 nM,"CCc1cc(-c2cnc3ccc(NC45CCC(O)(CC4)C5)nn23)n[nH]1 [Compound 7, 4-((3-(5-ethyl-1H-pyrazol-3-yl)imidazo[1,2-b]pyridazin-6-yl)amino)bicyclo[2.2.1]heptan-1-ol]",,,
,,,"Cc1cccc(-c2nn3c(c2-c2ccnc4ccc(C(N)=O)cc24)CCC3)n1 [Galunisertib, galunisertib, reference compound]",> 10 µM,,
,,,CN1CCC(CNc2ccc3ncc(-c4cccc(OC(F)(F)F)c4)n3n2)CC1 [SGI-1776],,partial reduction,partial reduction
